From patent publication US20230279053A1 (priority 2020, published 2023)

Columns and labels:
Mouse GLP-1R = target: T1, Mouse GLP-1R (Mus musculus, UniProt O35659); test: Functional antagonism of mouse GLP1 receptors, cAMP accumulation assay; format: cell-based; settings: CHO-K1 cells stably expressing mouse GLP-1R; stimulated with EC80 of Exendin-4; HitHunter cAMP assay; IC50 corrected by Cheng-Prusoff adaptation
T1 construct: expressed in transfected cells
T1 sequence (O35659 22-463): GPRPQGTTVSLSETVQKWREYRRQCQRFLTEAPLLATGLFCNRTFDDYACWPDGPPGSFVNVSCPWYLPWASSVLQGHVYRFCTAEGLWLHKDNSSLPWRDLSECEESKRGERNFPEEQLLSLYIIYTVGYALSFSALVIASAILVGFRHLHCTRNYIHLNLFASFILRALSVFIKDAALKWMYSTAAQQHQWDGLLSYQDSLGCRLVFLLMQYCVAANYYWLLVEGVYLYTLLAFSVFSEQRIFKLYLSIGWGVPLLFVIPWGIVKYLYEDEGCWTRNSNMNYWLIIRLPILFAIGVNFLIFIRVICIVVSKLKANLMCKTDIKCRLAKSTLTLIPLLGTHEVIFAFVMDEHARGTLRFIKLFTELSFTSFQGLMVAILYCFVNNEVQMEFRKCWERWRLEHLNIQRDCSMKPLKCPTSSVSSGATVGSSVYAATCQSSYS
Procedure: Antagonist inhibition of cAMP production upon stimulation of GLP-1R with agonist ligand was assessed using HitHunter cAMP assay (DiscoverX). The method followed antagonist procedure steps provided in the kit. In brief, CHO-K1 cells stably expressing mouse GLP-1R were thawed and plated at 10K cells per well in CP05 reagent in the total volume of 20 μl into white walled, 384-well plates and incubated overnight at 37° C. in Cytomat. On the day of the assay, the media was replaced with 15 μl of HBSS/10 mM HEPES. DMSO stock of test compounds were serially diluted in DMSO and then further diluted in the HBSS/10 mM HEPES, 5 μl of each concentration were added to the plate followed by 30 min incubation at 37° C. Final DMSO concentration in the assay was 1%. Cells were stimulated for further 30 min at 37° C. by addition of an equivalent to EC80 concentration of Exendin-4. Intracellular accumulation of cAMP was stopped by addition of the HitHunter detection reagents in lysis buffer, provided in the kit. Following 1-hour incubation at RT in the dark, plates were read on Envision (Perkin Elmer). Dotmatics Studies software was used for fitting data to a four-parameter concentration response curve. Calculated IC50 values were corrected for the agonist concentration using an adaptation of the Cheng-Prusoff equation to generate functional pKb values: […]

Human GLP-1R = target: T2, Human GLP-1R (Homo sapiens, UniProt P43220); test: Functional antagonism of human GLP1 receptors, cAMP accumulation assay; format: cell-based; settings: HEK cells infected with GLP-1R Bacmam; stimulated with EC80 of GLP-1(7-36) amide; HiRange cAMP kit; IC50 corrected by Cheng-Prusoff adaptation
T2 construct: expressed in transfected cells; host or cells: HEK cells, BacMam transduction
Procedure: The method followed a two-step protocol provided in the kit. In brief, HEK cells infected with 1% v/v GLP-1R Bacmam for 24 h were harvested using cell dissociation solution (Gibco), centrifuged and resuspended in the assay buffer (HBSS (Lonza) supplemented with 0.5 mM IBMX (Tocris)). DMSO stock of test compounds were serially diluted in the assay buffer and added to 96-well half area white plates (Costar). Final DMSO concentration in the assay was 0.3%. 20K cells per well were added to plates followed by 30 min incubation (humidified air (5% CO2), 37° C.). […] Intracellular accumulation of cAMP was stopped by addition of the HTRF detection reagents in lysis buffer, provided in the kit. Following 1-hour incubation at RT, plates were read on Pherastar FS (BMG Labtech, Inc.) Dotmatics Studies software was used for fitting data to a four-parameter concentration response curve. Calculated IC50 values were corrected for the agonist concentration using an adaptation of the Cheng-Prusoff equation to generate functional pKb values: […]

T2 sequence (P43220 24-463): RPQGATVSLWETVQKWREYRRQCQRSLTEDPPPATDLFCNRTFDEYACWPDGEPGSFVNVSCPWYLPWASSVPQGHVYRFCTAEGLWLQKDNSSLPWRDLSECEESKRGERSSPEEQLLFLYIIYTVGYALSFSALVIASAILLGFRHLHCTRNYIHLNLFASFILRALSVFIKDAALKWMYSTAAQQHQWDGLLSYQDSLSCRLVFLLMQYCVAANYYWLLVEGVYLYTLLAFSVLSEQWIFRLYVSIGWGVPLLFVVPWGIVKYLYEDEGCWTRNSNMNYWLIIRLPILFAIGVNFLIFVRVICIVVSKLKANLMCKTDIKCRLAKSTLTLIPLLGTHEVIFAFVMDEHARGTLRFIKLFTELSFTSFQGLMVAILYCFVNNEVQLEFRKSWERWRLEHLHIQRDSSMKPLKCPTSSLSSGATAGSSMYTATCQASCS

Substance: exendin(9-39)amide [Ex 9-39]
- Mouse GLP-1R antagonist cAMP fpKb (Mouse GLP-1R): 7.2
- Human GLP-1R antagonist cAMP fpKb (Human GLP-1R): 7.8
